[ ]: non-standard residue; d: D form. The star is where a group is joined. Dnp = O=[N+]([O-])c1ccc(*)c([N+](=O)[O-])c1; Mca = COc1ccc2c(CC(=O)*)cc(=O)oc2c1; Nva = CCC[C@H](N)C(=O)O; Dap = NC[C@H](N)C(=O)O; Mob = COc1ccc(C*)cc1
Key:
Format in all cases: biochemical
[1] = target: T1, MMP-3cd (Homo sapiens, UniProt P08254); test: Colorimetric thiopeptolide conversion assay, Ellman's reaction with DTNB (Example 2); set-up: key: +: Increase in the optical signal was observed over 5 minutes; details: absorption at 415 nm for 5 min
T1 construct: The catalytic domains of the human recombinant MMP-3 and MMP-8 protein, MMP-3cd and MMP-8cd; purchased Biomol International L. P. Pennsylvania, USA SE-109
Procedure: (§1) TNCB Buffer (see Example 1)
(§2) 1) DTNB Solution (5,5′-dithiobis(2-nitrobenzoic Acid):
(§3) A 40 mM stock solution in DMSO was prepared:
(§4) Then 27.5 μL of DTNB stock solution were diluted with 522 μL of water.
(§5) A 100 mM stock solution in DMSO was prepared. For use, 55 μL of thiopeptilide stock solution were diluted with 500 μL of TNCB buffer.
(§6) Immediately before use, 550 μl of DTNB were mixed with 550 μl of thiopeptilide.
(§7) The measurements were carried out in 96-multiwell plates (half area plates, flat bottom, clear, polystyrene, No. 3695) (Corning Costar, Acton, USA).
(§8) 10 μL of enzyme solution and 10 μL of H2O were mixed, and the reaction was started by adding 10 μL of substrate solution.
(§9) Microtiter plate photometer: Molecular Devices Sunnyvale, USA. SpectraMax 190.

[2] = target: T2, MMP-8cd (Homo sapiens, UniProt P22894); test: as above; set-up: key: +: Increase in the optical signal was observed over 5 minutes; details: absorption at 415 nm for 5 min
T2 construct: The catalytic domains of the human recombinant MMP-3 and MMP-8 protein, MMP-3cd and MMP-8cd; purchased Biomol International L. P. Pennsylvania, USA SE-255
Procedure: as §1, §2, §3, §4, §5, §6, §7, §8, §9

[3] = system: ADAMTS; test: Colorimetric thiopeptolide conversion assay (Example 2); details: Example 2, ADAMTS-1 and ADAMTS-4 tested
Procedure: as §1
(§10) ADAMTS (Invitek Gesellschaft für Biotechnik & Biodesign mbH, Berlin, Germany) 5 μg of ADAMTS-1 were diluted with 2200 μL, and 5 μg of ADAMTS-4 were diluted with 600 μl of TNCB buffer.
as §2, §3, §4, §5, §6, §7, §8, §9

[4] = system: ADAMTS-4; test: Colorimetric thiopeptolide conversion assay, Ellman's reaction with DTNB (Example 2); set-up: key: +: Increase in the optical signal was observed over 5 minutes; details: absorption at 415 nm for 5 min
Procedure: as §1, §10, §2, §3, §4, §5, §6, §7, §8, §9

[5] = system: ADAMTS-1; test: as above; set-up: key: +: Increase in the optical signal was observed over 5 minutes; details: absorption at 415 nm for 5 min
Procedure: as §1, §10, §2, §3, §4, §5, §6, §7, §8, §9

[6] = target: T1, MMP-3cd; test: Fluorometric substrate conversion assay (Comparative Example 1); set-up: key to Conversion of fluorimetric substrate by MMP-3 cd (increase in the optical signal): +: Increase in the optical signal was observed over 5 minutes; details: for Conversion of fluorimetric substrate by MMP-3 cd (increase in the optical signal): fluorescence measured for 5 minutes, λex/λem per substrate
Procedure: (§11) The catalytic domains of the human recombinant MMP-3 and MMP-8 protein, MMP-3cd and MMP-8cd, can be purchased from, for example, Biomol International L. P. Pennsylvania, USA; catalog number SE-109 and SE-255 respectively. The truncated forms of ADAM-TS1 and ADAM-TS4 protease can likewise be purchased from, for example, Invitek, Gesellschaft für Biotechnik & Biodesign mbH, Berlin, Germany, catalog number 30400402 and 30400102, respectively.
(§12) 100 mM tris(hydroxymethyl)aminomethane, adjusted to pH 7.5 with HCl-100
(§13) 10 mM substrates (see Table) in DMSO, immediately before use, 2 μL of the substrate stock solution were diluted with 130 μL of H2O.
(§14) MMP-3cd (2.3 μg/mL), MMP-8cd (0.6 μg/mL), ADAMTS-1 (2.3 μg/mL) and ADAMTS-4 (3.3 μg/mL) were diluted with TNCB buffer.
(§15) 10 μL of enzyme solution were mixed with 10 μL of H2O, and the reaction was started by adding 10 μL of substrate solution.
(§16) The fluorescence was measured in a TECAN Spectrafluor Plus fluorescence apparatus; Excitation/Emission (see Table). This entailed measuring the fluorescence for 5 minutes on each occasion.

[7] = target: T2, MMP-8cd; test: as above; set-up: key to Conversion of fluorimetric substrate by MMP-8 cd (increase in the optical signal): +: Increase in the optical signal was observed over 5 minutes; details: for Conversion of fluorimetric substrate by MMP-8 cd (increase in the optical signal): fluorescence measured for 5 minutes, λex/λem per substrate
Procedure: as §11, §12, §13, §14, §15, §16

T1 sequence (P08254 100-272 limits assumed): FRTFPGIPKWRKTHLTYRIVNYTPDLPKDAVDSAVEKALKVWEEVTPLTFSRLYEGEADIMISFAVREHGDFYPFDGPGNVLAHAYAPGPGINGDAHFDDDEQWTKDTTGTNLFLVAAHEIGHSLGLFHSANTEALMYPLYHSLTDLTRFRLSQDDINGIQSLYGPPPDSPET
T2 sequence (P22894 100-262 limits assumed): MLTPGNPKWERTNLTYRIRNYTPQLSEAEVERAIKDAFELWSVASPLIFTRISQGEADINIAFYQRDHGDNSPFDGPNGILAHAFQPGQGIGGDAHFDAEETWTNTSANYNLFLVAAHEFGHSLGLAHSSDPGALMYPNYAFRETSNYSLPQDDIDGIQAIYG

| Compound | Conversion of fluorimetric substrate by MMP-3 cd (increase in the optical signal) [6] | Conversion of fluorimetric substrate by MMP-8 cd (increase in the optical signal) [7] | also measured |
| --- | --- | --- | --- |
| CCOC(=O)CNC(=O)[C@H](CC(C)C)NC(=O)C(CC(C)C)SC(=O)CNC(=O)[C@H](CC(C)C)NC(=O)[C@@H]1CCCN1C(C)=O (stereo partly drawn) [Compound 1, Ac—P-L-G-[(S)-2-mercapto-4-methylpentanoyl]-L-G-OEt] |  |  | Conversion of colorimetric substrate in Ellman's reaction by MMP-3 cd [1]: +; Conversion of colorimetric substrate in Ellman's reaction by MMP-8 cd [2]: +; Conversion by ADAMTS (in words) [3]: converted; Conversion of colorimetric substrate in Ellman's reaction by ADAMTS-4 [4]: +; Conversion of colorimetric substrate in Ellman's reaction by ADAMTS-1 [5]: + |
| CCCC(SC(=O)C(C)NC(=O)[C@H](CC(C)C)NC(=O)[C@@H]1CCCN1C(C)=O)C(=O)N[C@@H](Cc1c[nH]c2ccccc12)C(N)=O (stereo partly drawn) [Compound 2, Ac—P-L-A-[(S)-2-mercaptopentanoyl]-W—NH2] |  |  | Conversion of colorimetric substrate in Ellman's reaction by MMP-3 cd [1]: +; Conversion of colorimetric substrate in Ellman's reaction by MMP-8 cd [2]: +; Conversion by ADAMTS (in words) [3]: not converted |
| (7-methoxycoumarin-4-yl)acetyl-Pro-Leu-Gly-Leu-3-(2′,4′-dinitro-phenyl)-L-2,3-diaminopropionyl-Ala-Arg-NH2 [Mca-P-L-G-L-Dap(Dnp)-A-R—NH2] | + | + | Conversion with the protease MMP-3 (in words) ([6]; see experimental section): possible to convert; Conversion with the protease MMP-8 (in words) ([7]; see experimental section): possible to convert |
| Dnp-P-L-G-L-W-A-R—NH2 (Dnp-PLGLWAR-NH2; SMILES CC(C)C[C@H](NC(=O)CNC(=O)[C@H](CC(C)C)NC(=O)[C@@H]1CCCN1c1ccc([N+](=O)[O-])cc1[N+](=O)[O-])C(=O)N[C@@H](Cc1c[nH]c2ccccc12)C(=O)N[C@@H](C)C(=O)N[C@@H](CCCNC(=N)N)C(N)=O) [fluorimetric MMP substrate, Bachem M-1855] | + |  |  |
| Dnp-P-β-cyclohexyl-A-G-C(Me)-H-A-K—(N-Me-Abz)-NH2 | + | + |  |
| Mca-GKPILFFRLK(Dnp)R-NH2 | + |  |  |
| Mca-PLAC(Mob)WAR[Dap](Dnp)-NH2 | + | + |  |
| Mca-PLA[Nva][Dap](Dnp)AR-NH2 | + | + |  |

More lines, main results first:

| Conversion of fluorimetric substrate by MMP-3 cd (increase in the optical signal) [6] | Conversion of fluorimetric substrate by MMP-8 cd (increase in the optical signal) [7] | Compound | also measured |
| --- | --- | --- | --- |
| + | + | Mca-P-β-cyclohexyl-A-G-Nva-H-A-Dpa-NH2 |  |
| + |  | Mca-PLAQAV[Dap](Dnp)RSSSR-NH2 |  |
| + | + | Mca-RPLALWR[Dap](Dnp)-NH2 |  |
| + |  | Mca-R—P—K—P—V-E-Nval-W—R—K-(Dnp)-NH2 |  |
| + | + | Mca-R—P—K—P—Y-A-Nva-Met-K(Dnp)-NH2 |  |
| + | + | NBD-eAhx-R—P—K—P-L-A-Nva-W—K(DMACA)-NH2 |  |

— patent US20090149332A1, “METHODS FOR DETERMINING THE ACTIVITY OF ADAM-TS PROTEASES USING THIOPEPTOLIDES” (SANOFI-AVENTIS DEUTSCHLAND GMBH, priority 2005, published 2009)
